Test system: Ubi7DL gene
Test: NGS sequencing of transformed plantlets for mutations at the gRNA target site around the STOP codon of Ubi7DL
Set-up: species or system wheat var. Fielder
Settings: 59 of 97 events; multiplex G1, G2, G3 guides with Cas9; all mutations generated with G3
From the text: The strategy for GT at Ubi7DL is outlined in FIG. 1 and is based on the method of in planta GT (Fauser et al. 2012). A Cas9 gRNA (G3 SEQ ID NO: 8) that efficiently makes a DNA double strand break (DSB) around the STOP codon of the Ubi7DL gene was first identified by Agrobacterium-mediated transformation into wheat var. Fielder with a binary plasmid containing a TaU6-tRNA multiplex guide (SEQ ID NO: 10) expressing 3 guides G1 (SEQ ID NO: 6), G2 (SEQ ID NO: 7) and G3 (SEQ ID NO: 8) under control of promoter TaU6 (SEQ ID NO: 9), together with ZmUbi (SEQ ID NO: 11)-Cas9 (SEQ ID NO: 13)-nos terminator (SEQ ID NO: 12) and pActin-Bar-nos cassettes. These 3 target sites are around the STOP codon of Ubi7DL. Fielder wheat cultivar was transformed with these Agrobacterium strains essentially as described by WO2000/063398.

G3: Cas9 gRNA (SEQ ID NO: 8) making a double strand break around the STOP codon of Ubi7DL (guide CAGGAGCTTACTGGCCACCA; listed as DNA, chemistry not given here; listed as Triticum aestivum) [Line G3]
independent transformation events with mutations at the target site: 61%

— patent publication US20250263733A1, “TARGETED GENE INTEGRATION IN PLANTS” (LIMAGRAIN EUROPE, priority 2021, published 2025)
